US8614341B2, “Amorphous silibinin for the treatment of viral hepatitis” (Euromed S.A., priority 2009, dated 2013)

Experiments:
[1] = Storage stability of the amorphous state (XRPD assessment); assay type: physicochemical; conditions: single polyethylene bag, 2 months
Description: For quantitative XRPD assessment ZnO (XRPD spectrum FIG. 3A) was used as internal standard. Three characteristics peaks of crystalline sylibinin (2-theta: 20.7, 22.3 and 24.5°) were chosen for the quantitative determination of the crystalline form and peaks at 2-theta: 56.6 and 62.8° of the internal standard (IS, ZnO) were used as reference as reported in FIG. 3B.
XRPD spectra were obtained using X'Pert diffractometer from PANalytical, using the following parameters for acquisition and data processing:
Silibinin samples obtained according to the present invention were stored at 4±2° C. at 60% R.H., 25±2° C. at 60±5% R.H. and 40±2° C. at 60±5% R.H., in a single polyethylene bag for 2 months. After this time the samples were analyzed by XRPD.

[2] = Solubility (HPLC - Ph. Eur. 01/2007:2071) after 30 min; assay type: physicochemical
Description: A “silibinin release rate of 80% or greater” means that the amorphous silibinin is at least 80% soluble in aqueous solution (standard according to Ph. Eur.).
Several lots of silibinin manufactured according to the method of the invention, including steps L and M, were analyzed using the XRPD method described in example 2.
Solubility of this product (HPLC—Ph. Eur. 01/2007:2071) after 30 min. is higher than 80%. Conversely the silibinin obtained according to the method of the invention without performing steps L and M, though of high chemical purity is mainly crystalline (typically more than 70% crystalline).
Solubility of this product (HPLC—Ph. Eur. 01/2007:2071) after 30 min. is lower than 80%.

stability of amorphous state (XRPD) ([1]; 25±2° C. at 60±5% R.H.) | stability of amorphous state (XRPD) ([1]; 4±2° C. at 60% R.H.) | stability of amorphous state (XRPD) ([1]; 40±2° C. at 60±5% R.H.) | Solubility (HPLC - Ph. Eur. 01/2007:2071) [2] | SMILES
extended crystallization |  |  |  | COc1cc(C2Oc3cc(C4Oc5cc(O)cc(O)c5C(=O)C4O)ccc3OC2CO)ccc1O (stereo not drawn) [amorphous silibinin samples, containing about 10% of crystal] [reference compound]
stable | stable | stable | higher than 80% | COc1cc(C2Oc3cc(C4Oc5cc(O)cc(O)c5C(=O)C4O)ccc3OC2CO)ccc1O (stereo not drawn) [amorphous silibinin, silibinin]
 |  |  | lower than 80% | COc1cc(C2Oc3cc(C4Oc5cc(O)cc(O)c5C(=O)C4O)ccc3OC2CO)ccc1O (stereo not drawn) [silibinin obtained without performing steps L and M] [reference compound]
